US9920059B2, “Heterocyclic compounds as pesticides” (BAYER CROPSCIENCE AKTIENGESELLSCHAFT, priority 2014, dated 2018)
Where two headings read alike, the source gives them in different places.

Tests used:
[1] = test system: green peach aphid (Myzus persicae); assay: Myzus persicae spray test (MYZUPE), Chinese cabbage leaf discs; format: in vivo; details: after 6 days
Method: Myzus persicae—Spray Test (MYZUPE)
• Solvent: 78 parts by weight of acetone • 1.5 parts by weight of dimethylformamide • Emulsifier: alkylaryl polyglycol ether
(§1) To produce an appropriate active ingredient preparation, 1 part by weight of active ingredient is dissolved using the specified parts by weight of solvent and made up with water containing an emulsifier concentration of 1000 ppm until the desired concentration is attained. To produce further test concentrations, the preparation is diluted with emulsifier-containing water.
Discs of Chinese cabbage leaves (Brassica pekinensis) infested with all stages of the green peach aphid (Myzus persicae) are sprayed with an active ingredient preparation of the desired concentration.
After 6 days, the efficacy in % is determined. 100% means that all the aphids have been killed; 0% means that none of the aphids have been killed.

[2] = test system: greenhouse red spider mite (Tetranychus urticae); assay: Tetranychus urticae spray test, OP-resistant (TETRUR), bean leaf discs; format: in vivo; details: application rate 500 g/ha, after 6 days
Method: Tetranychus urticae—Spray Test, OP-Resistant (TETRUR)
• Solvent: 78.0 parts by weight of acetone • 1.5 parts by weight of dimethylformamide • Emulsifier: alkylaryl polyglycol ether
as §1
Discs of bean leaves (Phaseolus vulgaris) infested with all stages of the greenhouse red spider mite (Tetranychus urticae) are sprayed with an active compound preparation of the desired concentration.
After 6 days, the efficacy in % is determined. 100% means that all the spider mites have been killed; 0% means that none of the spider mites have been killed.

[3] = log P by HPLC on reversed-phase C18 columns, OECD Guideline 117; format: physicochemical; details: for logP [a]: pH 2.7; for logP [b]: pH 7.8; for chromatographic logP: reversed-phase C18 HPLC column
Method: The log P values were determined in accordance with OECD Guideline 117 (EC Directive 92/69/EEC) by HPLC (high-performance liquid chromatography) using reversed-phase (RP) columns (C18), by the following methods: [a] The LC-MS determination in the acidic range is effected at pH 2.7 with 0.1% aqueous formic acid and acetonitrile (contains 0.1% formic acid) as eluents; linear gradient from 10% acetonitrile to 95% acetonitrile. [b] LC-MS determination in the neutral range is effected at pH 7.8 with 0.001 molar aqueous ammonium hydrogencarbonate solution and acetonitrile as eluents; linear gradient from 10% acetonitrile to 95% acetonitrile. Calibration is effected with unbranched alkan-2-ones (having 3 to 16 carbon atoms) with known log P values (log P values determined on the basis of the retention times by linear interpolation between two successive alkanones).

[4] = test system: adult houseflies (Musca domestica); assay: Musca domestica test (MUSCDO); format: in vivo; details: application rate 100 ppm, after 2 days
Method: Musca domestica Test (MUSCDO) • Solvent: dimethyl sulphoxide To prepare an appropriate active ingredient preparation, 10 mg of active ingredient are mixed with 0.5 ml of dimethyl sulphoxide, and the concentrate is diluted with water to the desired concentration. Vessels containing a sponge treated with sugar solution and the active ingredient preparation of the desired concentration are populated with 10 adult houseflies (Musca domestica). After 2 days, the kill in % is determined. 100% means that all of the flies have been killed; 0% means that none of the flies have been killed.

[5] = test system: green peach aphid (Myzus persicae); assay: Myzus persicae spray test (MYZUPE), bell pepper plants; format: in vivo; details: after 6 days
Method: Myzus Persicae—Spray Test (MYZUPE) • Solvent: 7 parts by weight of dimethylformamide • Emulsifier: alkylaryl polyglycol ether To produce an appropriate active ingredient preparation, 1 part by weight of active ingredient is dissolved using the specified parts by weight of solvent and made up with water containing an emulsifier concentration of 1000 ppm until the desired concentration is attained. To produce further test concentrations, the preparation is diluted with emulsifier-containing water. If the addition of ammonium salts or/and penetrants is required, these are each added in a concentration of 1000 ppm to the preparation solution. Bell pepper plants (Capsicum annuum) severely infested with the green peach aphid (Myzus persicae) are treated by spraying with the active ingredient preparation in the desired concentration. After 6 days, the kill in % is determined. 100% means that all the aphids have been killed; 0% means that no aphids have been killed.

[6] = acidic range, NMR peak list table
[7] = neutral range, NMR peak list table
[8] = acidic range, pH 2.7, 0.1% aqueous formic acid/acetonitrile, read-out: log P[a]
[9] = neutral range, pH 7.8, ammonium hydrogencarbonate/acetonitrile, read-out: log P[b]

Row | Compound | logP [a] [3, 6] | logP [b] [3, 7] | efficacy in % ([1]; application rate 500 g/ha) | other results
1 | Cc1cc(C)c([S+]([O-])CC(F)(F)F)cc1-n1cnc2nn(-c3cccnc3)cc2c1=O (stereo not drawn) [I-1-20] | 1.84 | 1.79 |  | efficacy in % ([1]; application rate 20 g/ha): 90%; efficacy in % [2]: 90%
2 | Cc1cc(F)c(-n2cnc3nn(-c4cccnc4)cc3c2=O)cc1[S+]([O-])CC(F)(F)F (stereo not drawn) [I-1-4, 5-{2-Fluoro-4-methyl-5-[(2,2,2-trifluoroethyl)sulphinyl]phenyl}-2-(pyridin-3-yl)-2,5-dihydro-4H-pyrazolo[3,4-d]pyrimidin-4-one] |  |  | 100% | efficacy in % [2]: 100%; chromatographic logP [3, 8]: 1.79; chromatographic logP [3, 9]: 1.78
3 | Cc1cc(F)c(-n2nnc3nn(-c4cccnc4)cc3c2=O)cc1SCC(F)(F)F [I-1-3, 3-[2-fluoro-4-methyl-5-(2,2,2-trifluoroethylsulphanyl)phenyl]-6-(3-pyridyl)pyrazolo[3,4-d]triazin-4-one] |  |  | 100% | efficacy (kill in %) [4]: 80%; chromatographic logP [3, 8]: 3.18; chromatographic logP [3, 9]: 3.14
4 | Cc1cc(F)c(NC(=O)c2cn(-c3cccnc3)nc2N)cc1SCC(F)(F)F [II-1, 3-Amino-N-{2-fluoro-4-methyl-5-[(2,2,2-trifluoroethyl)sulphanyl]phenyl}-1-(pyridin-3-yl)-1H-pyrazole-4-carboxamide] |  |  |  | chromatographic logP [3, 8]: 2.72; chromatographic logP [3, 9]: 2.63
5 | O=c1c2cn(-c3cccnc3)nc2ncn1-c1cccc([S+]([O-])CC2CC2)c1 (stereo not drawn) [I-1-21] | 1.27 | 1.32 | 90% | 
6 | Cc1ccc(-n2cnc3nn(-c4cccnc4)cc3c2=O)cc1SCC(F)(F)F [I-1-7] |  |  | 90% | logP [a] ([3]; acidic range, Table 2): 2.51; logP [b] ([3]; neutral range, Table 2): 2.56
7 | O=c1c2cn(-c3ccc[n+]([O-])c3)nc2ncn1-c1cc([S+]([O-])CC(F)(F)F)c(Cl)cc1Cl (stereo not drawn) [I-1-15] | 1.66 | 1.67 | 90% | 
8 | O=c1c2cn(-c3cccnc3)nc2ncn1-c1cc([S+]([O-])CC(F)(F)F)ccc1F (stereo not drawn) [I-1-10] |  |  | 100% | logP [a] ([3]; acidic range, Table 2): 1.53; logP [b] ([3]; neutral range, Table 2): 1.55
9 | O=c1c2cn(-c3cccnc3)nc2ncn1-c1cccc(SCC(F)(F)F)c1 [I-1-12] | 2.25 | 2.18 | 90% | 
10 | CSc1cccc(-n2cnc3nn(-c4cccnc4)cc3c2=O)c1 [I-1-6] |  |  | 90% | logP [a] ([3]; acidic range, Table 2): 1.82; logP [b] ([3]; neutral range, Table 2): 1.78
11 | CSc1ccccc1-n1cnc2nn(-c3cccnc3)cc2c1=O [I-2-23] | 1.65 | 1.67 | 90% | 
12 | O=c1c2cn(-c3cccnc3)nc2ncn1-c1cccc([S+]([O-])CC(F)(F)F)c1 (stereo not drawn) [I-1-16] | 1.46 | 1.41 | 90% | 
13 | O=c1c2cn(-c3cccnc3)nc2ncn1-c1cc(SCC(F)(F)F)ccc1F [I-1-9] |  |  |  | efficacy in % ([1]; application rate 100 g/ha): 90%; logP [a] ([3]; acidic range, Table 2): 2.32; logP [b] ([3]; neutral range, Table 2): 2.35
14 | Cc1cc(F)c(-n2cnc3nn(-c4ccc[n+]([O-])c4)cc3c2=O)cc1[S+]([O-])CC(F)(F)F (stereo not drawn) [I-1-5, 5-{2-Fluoro-4-methyl-5-[(2,2,2-trifluoroethyl)sulphinyl]phenyl}-2-(1-oxidopyridin-1-ium-3-yl)pyrazolo[3,4-d]pyrimidin-4-one] |  |  | 100% | chromatographic logP [3, 8]: 1.39; chromatographic logP [3, 9]: 1.33
15 | Cc1cc(F)c(-n2nnc3nn(-c4cccnc4)cc3c2=O)cc1[S+]([O-])CC(F)(F)F (stereo not drawn) [I-1-2, 3-[2-Fluoro-4-methyl-5-(2,2,2-trifluoroethylsulphinyl)phenyl]-6-(3-pyridyl)pyrazolo[3,4-d]triazin-4-one] |  |  | 100% | efficacy (kill in %) [4]: 80%; chromatographic logP [3, 8]: 2.22; chromatographic logP [3, 9]: 2.19
16 | Cc1ccc(-n2cnc3nn(-c4cccnc4)cc3c2=O)cc1[S+]([O-])CC(F)(F)F (stereo not drawn) [I-1-8] |  |  | 90% | logP [a] ([3]; acidic range, Table 2): 1.65; logP [b] ([3]; neutral range, Table 2): 1.67
17 | O=c1c2cn(-c3cccnc3)nc2ncn1-c1cccc(SCC2CC2)c1 [I-1-11] | 2.50 | 2.41 | 100% | 
18 | Cc1cc(F)c(-n2cnc3nn(-c4cccnc4)cc3c2=O)cc1SCC(F)(F)F [I-1-1, 5-{2-Fluoro-4-methyl-5-[(2,2,2-trifluoroethyl)sulphanyl]phenyl}-2-(pyridin-3-yl)-2,5-dihydro-4H-pyrazolo[3,4-d]pyrimidin-4-one] |  |  |  | efficacy (kill in %) ([5]; application rate 20 ppm): 100%; chromatographic logP [3, 8]: 2.65; chromatographic logP [3, 9]: 2.63
19 | O=c1c2cn(-c3cccnc3)nc2ncn1-c1cc([S+]([O-])CC(F)(F)F)c(Cl)cc1Cl (stereo not drawn) [I-1-19] | 2.17 | 2.09 | 90% | 

More lines, main results first:

Row | logP [a] [3, 6] | logP [b] [3, 7] | Compound | efficacy in % ([1]; application rate 500 g/ha) | other results
20 | 2.74 | 2.69 | Cc1cc(F)c(-n2c(C)nc3nn(-c4cccnc4)cc3c2=O)cc1SCC(F)(F)F [I-1-22] | 90% | 
21 | 2.91 | 2.83 | O=c1c2cn(-c3cccnc3)nc2ncn1-c1cc(SCC(F)(F)F)c(Cl)cc1Cl [I-1-14] | 90% | 
22 | 2.02 | 1.94 | O=c1c2cn(-c3cccnc3)nc2ncn1-c1cc([S+]([O-])CC(F)(F)F)c(Cl)cc1F (stereo not drawn) [I-1-18] | 90% | 
23 | 2.75 | 2.72 | Cc1cc(C)c(-n2cnc3nn(-c4cccnc4)cc3c2=O)cc1SCC(F)(F)F [I-1-17] | 90% | 
24 | 2.70 | 2.65 | O=c1c2cn(-c3cccnc3)nc2ncn1-c1cc(SCC(F)(F)F)c(Cl)cc1F [I-1-13] |  | efficacy (kill in %) ([5]; application rate 4 ppm): 100%
